Results from US20100174007A1, “Haloneopentyl Bis(ALKYL) Phosphate Ester, Flame Retardant Composition Containing Same and Polyurethane Foam Prepared Therewith” (priority 2007, published 2010).

Assays:
[1] = test system: Salmonella typhimurium TA100; assay: Ames test, strain TA100; type: cell-based; conditions: with and without metabolic activation; base-pair substitution strain; further: key: +: Plus sign indicates observed mutagenic effects; −: minus sign indicates non-mutagenic property
Description: (§1) In each Ames test, a single chemical substance was evaluated in the four standard Salmonella typhimurium tester strains, TA1535, TA1537, TA98, and TA100. Strains TA1535 and TA100 identify mutagens that act via base-pair substitution whereas TA1537 and TA98 identify mutagens capable of causing frameshifts in the DNA. The bacterial strain E. coli WP2uvrA was also included as another sensitive tester strain. Each test was conducted with and without metabolic activation.

[2] = test system: Salmonella typhimurium TA1535; assay: Ames test, strain TA1535; type: cell-based; conditions: with and without metabolic activation; base-pair substitution strain; further: key: +: Plus sign indicates observed mutagenic effects; −: minus sign indicates non-mutagenic property
Description: as §1

E. coli WP2uvrA = type: cell-based
Description: as §1

[3] = test system: Salmonella typhimurium TA98; assay: Ames test, strain TA98; type: cell-based; conditions: with and without metabolic activation; frameshift strain; further: key: +: Plus sign indicates observed mutagenic effects; −: minus sign indicates non-mutagenic property
Description: as §1

[4] = test system: Salmonella typhimurium TA1537; assay: Ames test, strain TA1537; type: cell-based; conditions: with and without metabolic activation; frameshift strain; further: key: +: Plus sign indicates observed mutagenic effects; −: minus sign indicates non-mutagenic property
Description: as §1

rats = assay: Acute oral toxicity, limit dose; type: in vivo
Description: No rats died after the administration of an oral limit dose of 5000 mg/kg of products from Example 1(B). Clinical signs were minimal and all rats fully recovered by day 3. The acute oral LD50 was greater than 5000 mg/kg.

Compound | Ames test result TA100 [1] | Ames test result TA1535 [2] | Ames test result WP2uvrA (E. coli WP2uvrA) | Ames test result TA98 [3] | Ames test result TA1537 [4] | acute oral LD50 (rats; oral) | mortality after oral limit dose (rats; oral limit dose of 5000 mg/kg) | clinical signs after oral limit dose (rats; oral limit dose of 5000 mg/kg, all rats fully recovered by day 3)
CC(C)(C)c1ccccc1OP(=O)(OC(CCl)CCl)OC(CCl)CCl [O-tert-Butylphenyl bis(1,3-dichloro-2-propyl)phosphate] | + | + | − | − | − |  |  | 
O=P(OCC(CBr)(CBr)CBr)(OC(CCl)CCl)OC(CCl)CCl [Phosphoric acid, 3-bromo-2,2-bis(bromomethyl)propyl bis[2-chloro-1-(chloromethyl)ethyl]ester] | + | − | − | − | − |  |  | 
tribromoneopentyl bis(isobutyl)phosphate [Products of 1(B)] | − | − | − | − | − | greater than 5000 mg/kg | No rats died | minimal
